The record followed here is US20250375454A1, “METHODS FOR TREATING HEPATOCELLULAR CARCINOMA” (THE HONG KONG POLYTECHNIC UNIVERSITY, priority 2024, published 2025).

The subject of data set [1] is ERBB2. Put plainly: Western blot of ERBB2 expression in Huh7 cells. Format: cell-based. As to the method: (§1) The Huh7 cells and tumor tissues were lysed on ice using the lysis buffer. Protein concentration was quantified using Bradford assay (Bio-Rad, Hercules, CA, USA). Equivalent amounts of protein (25-50 μg) were loaded onto 10% sodium dodecyl sulfate-polyacrylamide gel electrophoresis (SDS-PAGE) and transferred to polyvinylidene fluoride (PVDF) membranes. Membranes were blocked with 5% non-fat milk in Tris-buffered saline Tween 20 (TBST) for an hour. The blots were incubated with primary antibodies (EGFR (4267S, Cell signaling technology, MA, USA), c-Myc (5605S, Cell signaling technology, MA, USA), Bax (2772S, Cell signaling technology, MA, USA), Bcl-2 (sc-7382, Santa Cruze, TX, USA), ERBB2 (2165S, Cell signaling technology, MA, USA), and α-tubulin (62204, Invitrogen, MA, USA), 1:1000) at 4° C. overnight. Subsequently, the membranes were washed thrice (15 min each) with TBST solution and incubated for 1 h with secondary horseradish peroxidase-conjugated antibodies (NA934 and NA931, Cytiva, MA, USA, 1:5000). Blots were then detected using an ECL kit and photographed using a ChemiDoc Imaging System (Bio-Rad, MA, USA). The bands were quantified using the ImageJ software (NIH, USA). The intensities of the bands for each protein sample were normalized to those of α-tubulin (internal standard protein). Quantitative data are presented as a fold change of untreated control.
A general note: In western blotting, separated proteins are transferred to a membrane and probed.

Data set [2] has as its system c-Myc. Put plainly: Western blot of c-Myc expression in Huh7 cells. The class given is cell-based. The protocol: as §1
The test system of data set [3] is PLC/PRF/5 cells. Put plainly: MTT cytotoxicity assay, PLC/PRF/5. Format: cell-based. To be noted: PLC/PRF/5; ZAK-I-57 24 h, ZAK-I-64 and ZAK-I-68 48 h. The protocol: (§2) Huh7 and PLC/PRF/5 (CRL-8024™) cells were purchased from Thermo Fisher Scientific and the ATCC, respectively. MIHA was kindly provided by Dr. J. R. Chowdhury, Albert Einstein College of Medicine, New York. The cell lines were cultured in Dulbecco's modified Eagle medium (DMEM, Gibco, MA, USA) supplemented with 10% fetal bovine serum (FBS, BI, MA, USA) and 1× penicillin-streptomycin solution (Solarbio) at 37° C. in a humid, 5% CO2 atmosphere.
(§3) Huh7 and PLC/PRF/5 cells at a density of 5×10^3 cells/well were cultured in 96-well plates and incubated at 37° C. in 5% CO2. Both cell lines were treated with different concentrations of benzoxazinone derivatives (ZAK-I-57, ZAK-I-64, and ZAK-I-68). Both cell lines were incubated with ZAK-I-57 for 24 h and for 48 h with ZAK-I-64 and ZAK-I-68. MTT (3-[4,5-dimethylthiazol-2-yl]-2,5-diphenyltetrazolium bromide) solution was then added to each well and incubated for 3 h in a CO2 atmosphere at 37° C. Insoluble formazan crystals were dissolved by adding 100 μL of dimethyl sulfoxide (DMSO) to each well, followed by orbital agitation for 10 min. A minimum of three biological replicates were analyzed using a plate reader to determine IC50. The same experiment was performed with MIHA hepatocyte cells to evaluate the selectivity cytotoxicity of ZAK-I-57.
In general terms: Formazan colour is commonly taken as a measure of viable cells.

The subject of data set [4] is EGFR. Put plainly: Western blot of EGFR expression in Huh7 cells. The class given is cell-based. As to the method: as §1
Data set [5] deals with Huh7 cells. Put plainly: MTT cytotoxicity assay, Huh7. Format: cell-based. The conditions noted are these: Huh7; ZAK-I-57 24 h, ZAK-I-64 and ZAK-I-68 48 h. The protocol: as §2, §3
The test system of data set [6] is PLC/PRF/5 tumor-bearing mice. Put plainly: PLC/PRF/5 tumor-bearing mouse model. The class given is in vivo. To be noted: ZAK-I-57 15 and 30 mg/kg, sorafenib 30 mg/kg. The protocol:
(§4) Male BALB/c nude mice (6-8 weeks old) were obtained from the Centralized Animal Facilities at the Hong Kong Polytechnic University. All animals were bred and housed under specific pathogen-free conditions, with access to sterile food and water. Environmental conditions were strictly controlled, with temperature maintained at 23±2° C., relative humidity between 30%-70%, and a 12-hour light/dark cycle. Mice were group-housed in accordance with institutional guidelines for recommended stocking density. The animal experiments were conducted according to institutional guidelines, and the experimental procedures were approved by the PolyU Animal Experimentation Ethics Committee (Ref. No. 19-20/57-ABCT-R-STUDENT).
PLC/PRF/5 cells (5×10^5) were suspended in 100 μL PBS with Matrigel (1:1 ratio) and injected into the right back of nude mice. Small tumors (<70 mm^3) were formed two weeks after cell inoculation. Mice were then randomized into the vehicle control group, ZAK-I-57 treated groups (15 mg/kg and 30 mg/kg), or sorafenib (30 mg/kg) groups. Mice were administered 200 μL of vehicle water and drugs by oral gavage daily for three weeks. Tumor size was measured twice a week, and tumor volumes were calculated using the formula [(length×width×depth)/2 mm^3] while each mouse was weighed. At the end of the experiment, the mice were sacrificed, and the tumors and organs were collected for further experiments.
as §1
(§5) Tumors were fixed in 4% formalin, embedded in paraffin, and sectioned at […] thickness for IHC staining. Ki-67 primary antibody (ab16667, Abcam, MA, USA) and anti-mouse IgG recombinant secondary antibody (7056S, Cell Signaling Technology, MA, USA) were used for IHC staining. Hemotoxin (Invitrogen, MA, USA) was used to stain nuclei. The number of positively stained cells in Ki-67-stained slides was evaluated using ImageJ software (NIH, MD, USA).
(§6) H&E staining was performed on histological sections of organs (heart, spleen, kidney, liver, and lung) to examine the toxicity of ZAK-I-57 in PLC/PRF/5 tumor-bearing and PDTX model mice. Briefly, the histological slides were deparaffinized using 100% xylene (v/v). The slides were then washed several times with ethanol solutions of various concentrations (70-100%, v/v) and immersed in hematoxylin for 5 min, followed by a quick dip in acidic alcohol. Next, the slides were immersed in Scott's tap water for 3 min and in 1% eosin for 30 s. Finally, the slides were dehydrated using ethanol solutions of various concentrations (70%-100%, v/v) and 100% xylene (v/v) and mounted using a mounting medium.

The subject of data set [7] is HCC PDTX mouse model. Put plainly: HCC patient-derived tumor xenograft (PDTX #1) mouse model. Format: in vivo, mice. The conditions noted are these: ZAK-I-57 15 and 30 mg/kg, sorafenib 30 mg/kg. The protocol:
as §4
The procedure for the establishment of PDTX #1 was previously described. Tumor cells from PDTX #1 was inoculated subcutaneously on the back of nude mice. When the tumors reached approximately 1,000 mm^3, mice with the first generation of xenografts (P1) were sacrificed, and the xenografts were isolated and expanded for the second generation (P2). When P2 xenografts reached an average volume of 70 mm^3, mice were subjected to ZAK-I-57 and sorafenib treatment. The development of PDTX was approved by the Institutional Review Board of the University of Hong Kong/Hospital Authority Hong Kong West Cluster (UW 17-056) and informed consents were obtained from patients.
as §1, §5, §6
Background: In xenograft studies the graft and the host belong to different species.

Where [8] appears, read: heart, liver, spleen, lung, kidney.

As to `O=c1oc(-c2ccc(O)cc2)nc2cc([N+](=O)[O-])ccc12` [ZAK-I-68, 2-(4-hydroxyphenyl)-7-nitro-4H-3,1-benzoxazin-4-one], the ERBB2 expression result in data set [1] (Huh7, 48 h treatment) is “no appreciable effect”; in data set [1] (Huh7, 72 h treatment), “significant downregulation”. Also, the c-Myc expression result in data set [2] (Huh7, 48 h treatment) is listed as “no appreciable effect”; in data set [2] (Huh7, 72 h treatment) it was “significant downregulation”. In addition, the “cytotoxicity (cell viability)” value in data set [3] and in data set [5] was “concentration-dependent increase in cytotoxicity” each time. Besides, the EGFR expression result is reported as “no appreciable effect” in data set [4] (Huh7, 48 h treatment) and “significant downregulation” in data set [4] (Huh7, 72 h treatment).

Regarding `CNC(=O)c1cc(Oc2ccc(NC(=O)Nc3ccc(Cl)c(C(F)(F)F)c3)cc2)ccn1` [sorafenib, reference compound], the “tumor cellularity (H&E staining)” value in data set [6] (vs vehicle control) and in data set [7] (vs vehicle control) was “marked reduction in tumor cellularity” each time. In addition, the “gross anatomical examination of vital organs” value in data set [6] (setting [8]) and in data set [7] (setting [8]) was “maintained tissue morphology comparable to the vehicle control” each time. Also, the “histopathology of vital organs (H&E)” value in data set [6] (setting [8]) and in data set [7] (setting [8]) was “absence of significant pathological changes” in each case. Also, the body weight entry in data set [6] (oral gavage daily, 20 days) is recorded as “only slight variation”; in data set [7] it was “Slight variations”.

`Cc1ccccc1-c1nc2cc([N+](=O)[O-])ccc2c(=O)o1` [ZAK-I-64, 2-(2-methylphenyl)-7-nitro-4H-3,1-benzoxazin-4-one]: the ERBB2 expression entry in data set [1] (Huh7, 48 h treatment) is on record as “no appreciable effect”; in data set [1] (Huh7, 72 h treatment), “significant downregulation”. Further, the c-Myc expression result is recorded as “no appreciable effect” in data set [2] (Huh7, 48 h treatment) and “significant downregulation” in data set [2] (Huh7, 72 h treatment). Further, the “cytotoxicity (cell viability)” value in data set [3] and in data set [5] was “concentration-dependent increase in cytotoxicity” throughout. Besides, the EGFR expression entry is reported as “no appreciable effect” in data set [4] (Huh7, 48 h treatment) and “significant downregulation” in data set [4] (Huh7, 72 h treatment).
